Experimental data taken from patent US20250205200A1, “5-METHOXY-N,N-[…][…] THE TREATMENT OF […]” (GH RESEARCH IRELAND LIMITED, priority 2022, published 2025).

Columns and labels:
[1] = Pharmacokinetics of 5-MeO-DMT and bufotenine after inhalation; format: in vivo, human
human hepatocytes = assay: Metabolic stability in Hμrel human hepatocyte co-culture assay; format: in vitro ADME; conditions: for Metabolic turnover: human hepatocytes
human plasma protein = assay: Plasma binding of 5-MIAA; format: in vitro ADME; conditions: estimated from fu and glomerular filtration rate 90-120 ml/min
[2] = rat; cited from earlier work
patients with PPD = conditions: cited from earlier work

Molecule: CN(C)CCc1c[nH]c2ccc(O)cc12 [Bufotenine (5-OH-DMT), Bufotenine]
- Detection of bufotenine in human serum ([1]; 15 minutes after administration of 5-MeO-DMT): In no case is it detected
- Detection of bufotenine in human serum ([1]; after administration of 5-MeO-DMT): barely detected
- Samples with bufotenine concentration above LLOQ (25 pg/ml) ([1]; after inhaled 5-MeO-DMT): Only in few samples

Molecule: 5-Methoxyindole acetic acid [5-Methoxyindole acetic acid (5-MIAA)]
- Metabolic turnover (human hepatocytes): low metabolic turnover
- Remaining abundance after 72 h (human hepatocytes; in the presence of hepatocytes, 1 and 10 μM): 75-82%
- Disappearance with stromal cell controls (human hepatocytes): no disappearance
- Time until removed from circulation for urinary excretion (human plasma protein): 1 to 2 h

Molecule: COc1ccc2[nH]cc(CC[N+](C)(C)[O-])c2c1 [5-MeO-DMT-N-oxide]
- Excretion [2]: rapid excretion

Molecule: COc1ccc2[nH]cc(CCO)c2c1 [5-Methoxyindole-3-ethanol]
- Relative LC/MS peak area remaining (human hepatocytes; 1 μM Stromal cells, 4 h): 97%
- Relative LC/MS peak area remaining (human hepatocytes; 1 μM Stromal cells, 8 h): 107%
- Relative LC/MS peak area remaining (human hepatocytes; 1 μM Stromal cells, 24 h): 94%
- Relative LC/MS peak area remaining (human hepatocytes; 1 μM Stromal cells, 48 h): 102%
- Relative LC/MS peak area remaining (human hepatocytes; 1 μM Stromal cells, 72 h): 104%
- Relative LC/MS peak area remaining (human hepatocytes; 10 μM Stromal cells, 4 h): 99%
- Relative LC/MS peak area remaining (human hepatocytes; 10 μM Stromal cells, 8 h): 105%
- Relative LC/MS peak area remaining (human hepatocytes; 10 μM Stromal cells, 24 h): 86%
- Relative LC/MS peak area remaining (human hepatocytes; 10 μM Stromal cells, 48 h): 98%
- Relative LC/MS peak area remaining (human hepatocytes; 10 μM Stromal cells, 72 h): 104%
- Metabolic turnover (human hepatocytes): high metabolic turnover
- Disappearance with stromal cell controls (human hepatocytes): no disappearance

Molecule: CC(=O)[C@H]1CC[C@H]2[C@@H]3CC[C@H]4C[C@H](O)CC[C@]4(C)[C@H]3CC[C@]12C [brexanolone]
- HAM-D scores (patients with PPD; one phase 3 trial, 30 days after initiation of infusion): significantly reduced
- Efficacy (HAM-D) (patients with PPD; other phase 3 trial): failed to show efficacy beyond 7 days
